Test results published in a melting point compilation (Tetko et al.).

Structure (SMILES)	melting point
CC1(CCc2ccc(O)cc2)NC(=O)NC1=O (configuration not stated)	192 to 194 °C
COc1ccccc1CNC(=O)CCl	94 to 96 °C
Nc1nc(-c2ccc(OCc3ccccc3)cc2)cs1	160 to 162 °C
NC(=O)C1CNc2ccccc2C1 (configuration not stated)	121 to 123 °C
O=C(O)CC1Sc2ccccc2NC1=O (configuration not stated)	188 to 190 °C
CNC(=O)Cc1noc(CCl)n1	89 to 91 °C
Nc1ncc(Br)cc1S(=O)(=O)Cl	129 to 131 °C
NC(=O)c1ccc(S(N)(=O)=O)s1	214 to 216 °C
O=C(O)CN1CCCCC1=O	169 to 171 °C
Cc1ccc(C(=O)Nc2cccc(C(F)(F)F)c2)cc1N	109 to 111 °C
Cc1ccc(-c2cnnn2-c2ccc(C(=O)O)cc2)cc1	236 to 238 °C
NNC(=O)c1ccc(O)c(Cl)c1	280 to 282 °C
CCC1NC(=O)NC1=O (configuration not stated)	115 to 119 °C
N#CCC(=O)NC1CCCC1	92 to 94 °C
CNc1ccc(Br)cc1[N+](=O)[O-]	101 to 103 °C
Cc1cc(OCC(N)=O)ccc1N	137 to 139 °C
Cc1cc(C)c([N+](=O)[O-])c(=O)[nH]1	179 to 181 °C
Nc1nc2cc(F)c(F)cc2s1	171 to 173 °C
CC(C)(C)C(=O)Nc1cccc(C(=O)O)c1	211 to 213 °C
COC(=O)c1ccc(NC(=O)Oc2ccccc2)cc1	185 to 187 °C
CSc1ccnc(C#N)c1	66 to 68 °C
CC(O)c1nc2cc(Cl)ccc2s1 (configuration not stated)	109 to 111 °C
CCc1ccc(C(=O)O)cc1S(=O)(=O)Cl	181 to 183 °C
c1cc2n(n1)CCCN2	99 to 101 °C
CCCCc1ccc(NS(=O)(=O)c2ccc(N)cc2OC)cc1	170 to 172 °C
CC(=O)c1c[nH]c(C(=O)N2CCCC(CO)C2)c1 (configuration not stated)	146 to 148 °C

Structure (SMILES)	melting point
CC(C)CC(CNC(=O)OC(C)(C)C)C(=O)O (configuration not stated)	76 to 78 °C
O=C1OC(CBr)CN1c1ccccc1 (configuration not stated)	102 to 104 °C
CCCN1C(=O)NC(=O)C1=O	105 to 107 °C
O=C(CCl)NCc1ccccc1COc1ccccc1	100 to 102 °C
O=[N+]([O-])c1ccc(S(=O)(=O)Cl)c(Cl)c1	75 to 77 °C
COc1ccc(S(=O)(=O)N2CCCCCC2)cc1NC(=O)CCl	105 to 107 °C
O=C(O)C1COCCO1 (configuration not stated)	59 to 61 °C
O=C(O)C1CCS(=O)(=O)C1 (configuration not stated)	135 to 137 °C
O=C(O)c1ccc2c(=O)[nH]c(S)nc2c1	379 to 381 °C
Cc1cc(N2C(=O)c3ccccc3C2=O)ccc1C(=O)O	271 to 273 °C
Cc1c(C(=O)O)sc2nc(C(F)(F)F)ccc12	265 to 267 °C
CC(C)(C)OC(=O)N1CC=C(c2ccc(O)cc2)CC1	134 to 136 °C
CCn1cc(C(F)(F)C(=O)O)cn1	99 to 101 °C
COc1ccccc1C(N)c1nccn1C (configuration not stated)	78 to 80 °C
CC(=O)NC1(c2noc(CCl)n2)CCCC1	74 to 76 °C
Nc1ccn(CC(=O)N2CCOCC2)n1	168 to 170 °C
CCn1c(=O)cc(N)n(Cc2ccccc2)c1=O	106 to 108 °C
O=[N+]([O-])c1cc(F)c(F)cc1[N+](=O)[O-]	80 to 82 °C
O=Cc1csc(-c2ccco2)n1	90 to 92 °C
O=C(O)c1nnn(-c2cccc(Br)c2)c1C(F)(F)F	154 to 156 °C
O=S(=O)(Cl)c1cccnc1Cl	42 to 44 °C
COC(=O)c1cc(Cl)ccc1S(=O)(=O)Cl	74 to 76 °C
CC(C)N(CCC(=O)O)C(=O)OC(C)(C)C	65 to 67 °C
O=Cc1cccc(OCc2occc2C(=O)O)c1	123 to 125 °C
Cc1ccccc1C(C)CC(=O)O (configuration not stated)	47 to 49 °C
Nc1cc(Cl)cc(Br)c1OC(F)F	86 to 88 °C

Structure (SMILES)	melting point
O=C(NO)c1cccs1	124 to 126 °C
O=C(O)c1csc(-c2ccoc2)n1	166 to 168 °C
OC(c1ccc(F)cc1)C1CCNCC1 (configuration not stated)	146 to 148 °C
CCc1cccc(CC)c1-n1ccnc1S	196 to 198 °C
CS(=O)(=O)Nc1ccc(S(N)(=O)=O)cc1F	190 to 192 °C
c1ccc2c(c1)NCCS2	34 to 38 °C
O=c1[nH]c2ccc(S(=O)(=O)Cl)cc2o1	151 to 155 °C
CCOC(=O)C(O)(CC#N)c1nccn1C (configuration not stated)	117 to 119 °C
Cc1ccc(N)c(N)c1C	49 to 51 °C
OCCNc1ccc(Br)cc1	80 to 82 °C
O=C(O)c1cn2cccnc2n1	255 to 257 °C
CCc1ccc2c(c1)C(=O)C(=O)N2	114 to 116 °C
NC(=C[N+](=O)[O-])N1CCOCC1	236 to 238 °C
O=C1CCc2cc(C(=O)c3c(F)cccc3F)ccc2N1	248 to 250 °C
O=C1CCSc2ccccc2N1	208 to 210 °C
O=C(CCl)Nc1cccc(S(=O)(=O)N=C2CCCN2)c1	156 to 160 °C
COC(=O)c1c(S)nc2ccccc2c1O	179 to 181 °C
CN1CCN(C(=O)c2cc(N)ccn2)CC1	133 to 135 °C
NC(=NO)c1cccc(F)c1	73 to 75 °C
CC(C)(C)c1nn(-c2ccccc2Cl)cc1C=O	111 to 113 °C
NC(=O)C1CNc2ccccc2N1 (configuration not stated)	99 to 101 °C
O=C1NC(=O)C(c2ccccc2)(C(F)(F)F)N1 (configuration not stated)	240 to 242 °C
CCOc1cc(C=CC(=O)O)ccc1OCCOc1ccc(F)cc1	105 to 107 °C
CN(Cc1ccccc1)C(N)=O	134 to 136 °C
O=C(CCl)NCCOc1cccc(C(F)(F)F)c1	43 to 45 °C
COc1cc(S(N)(=O)=O)ccc1[N+](=O)[O-]	149 to 151 °C

Structure (SMILES)	melting point
O=C1c2ccccc2S(=O)(=O)N1CCBr	94 to 96 °C
O=C1OCc2ccc(S(=O)(=O)Cl)cc21	104 to 106 °C
CN1C(=O)N(CC(=O)O)C(=O)C12CCCCC2	220 to 222 °C
O=C(O)C(=O)C=Cc1cccs1	114 to 116 °C
Cn1ccnc1C(O)C(F)(F)F (configuration not stated)	135 to 137 °C
CC(Cl)C(=O)Nc1cc([N+](=O)[O-])ccc1Cl (configuration not stated)	120 to 122 °C
N#Cc1cccc(-n2cccn2)c1	61 to 63 °C
CN(C)S(=O)(=O)c1ccc(Cl)c(C(=O)NCCCCCC(=O)O)c1	84 to 86 °C
CNC(=O)c1cccnc1Cl	106 to 108 °C
CCOC(=O)c1cnn(-c2cccc(N)c2)c1C(F)(F)F	87 to 89 °C
FC(F)n1ccnc1CN1CCNCC1	73 to 75 °C
N#CC(=Cc1ccc2c(c1)OCO2)C(=O)O	205 to 207 °C
CCN(Cc1ccccc1)S(N)(=O)=O	79 to 81 °C
CCOC(=O)COc1cccc(C(=O)O)c1	119 to 121 °C
O=C(O)CNC(=O)c1ccc(F)cc1F	139 to 141 °C
O=C(O)C1=C(c2ccccc2)N2CCS(=O)(=O)N=C2S1	244 to 246 °C
CN(C)S(=O)(=O)c1ccc(Cl)c([N+](=O)[O-])c1	104 to 106 °C
O=C(O)CN1C(=O)COc2cc(Br)ccc21	234 to 236 °C
O=S(=O)(c1cccc(-c2nnc(S)n2-c2ccc(OC(F)(F)F)cc2)c1)N1CCOCC1	247 to 249 °C
CCOc1ccc(-c2nnc(SC(F)F)n2CCC(=O)O)cc1	198 to 200 °C
COC(=O)Cn1cnc(C#N)n1	53 to 55 °C
NC(=S)CN1C(=O)c2ccccc2S1(=O)=O	160 to 162 °C
Cc1nc(Cl)c(NN)nc1C	134 to 136 °C
N#CCc1ccc(F)c(Br)c1	35 to 37 °C
